The target of this experiment is BTK (Homo sapiens, UniProt Q06187). The experiment can be described thus: biochemical.
[1] abbreviates: read-out: BTK inhibition (%), 0.75 uM BTK, […] probe 3l, 15 min preincubation.

For orientation: inhibition means the change of the read-out against control, counted positive when it falls.

Like-named read-outs stand apart in the source and are kept apart here.

Sequence of BTK (Q06187 402-655 limits assumed): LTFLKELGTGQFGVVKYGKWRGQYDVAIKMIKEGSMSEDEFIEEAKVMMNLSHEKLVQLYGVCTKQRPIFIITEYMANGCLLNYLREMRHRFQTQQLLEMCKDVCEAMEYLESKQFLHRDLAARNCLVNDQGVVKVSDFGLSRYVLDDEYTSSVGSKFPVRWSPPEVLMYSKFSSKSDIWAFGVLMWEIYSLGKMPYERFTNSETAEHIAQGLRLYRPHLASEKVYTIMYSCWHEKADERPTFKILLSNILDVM

Consider `CC(=O)O[C@@H]1C[C@H](O)[C@@]23CO[C@@H](O)[C@]1(C)[C@@H]2C[C@@H](O)[C@]1(C)[C@@H]3C(=O)[C@H](OC(C)=O)[C@@]2(C)[C@H](c3ccoc3)C[C@H]3O[C@]321` [PCM-0216537], for which the inhibition at 10 µM under setting [1] was -15.4%.

Take `C=C[C@H]1CN2CC[C@]3(C(=O)Nc4ccccc43)[C@@H]2C[C@@H]1/C(=C\OC)C(=O)OC` [PCM-0216538]: under setting [1], the inhibition at 10 µM is 6.2%.

Take `C[C@@H]1O[C@@H](O[C@H]2[C@H](O[C@H]3CC[C@@]4(C)[C@@H](CC[C@]5(C)[C@@H]4CC=C4[C@@H]6CC(C)(C)CC[C@]6(C(=O)O)CC[C@]45C)[C@]3(C)CO)OC[C@H](O[C@@H]3O[C@H](CO)[C@@H](O)[C@H](O)[C@H]3O)[C@@H]2O)[C@H](O)[C@H](O)[C@H]1O` [PCM-0216539]: the inhibition at 10 µM under setting [1] worked out at 52.5%.

For the compound `C=C1C(=O)O[C@H]2[C@H]1CCC(C)=C1CC[C@@](C)(O)[C@@H]12` [PCM-0216540], the inhibition at 10 µM under setting [1] is 23.9%.

As to `CC(C)=C1C/C=C(\C)CC/C=C(\C)CC1=O` [PCM-0216542], the inhibition at 10 µM under setting [1] was -4.6%.

In the case of `OC[C@H]1O[C@@H](Oc2cc3c(O)cc(O)cc3[o+]c2-c2ccc(O)c(O)c2)[C@H](O)[C@@H](O)[C@@H]1O` [PCM-0216543], the inhibition at 10 µM under setting [1] came out at 23.9%.

As for `C=C1CCC[C@]2(C)C[C@]3(O)OC(=O)C(C)=C3C[C@@H]12` [PCM-0216544], under setting [1], the inhibition at 10 µM came out at 6.9%.

On to `C=C1CCC[C@]2(C)C[C@@H]3OC(=O)C(C)=C3C[C@@H]12` [PCM-0216545], for which the inhibition at 10 µM under setting [1] was -38.6%.

Take `CC(C)=CCC[C@@](C)(O)[C@H]1CC[C@]2(C)[C@@H]1[C@H](O)C[C@@H]1[C@@]3(C)CC[C@H](O)C(C)(C)[C@@H]3[C@@H](O[C@@H]3O[C@H](CO)[C@@H](O)[C@H](O)[C@H]3O)C[C@]12C` [PCM-0216547]: under setting [1], the inhibition at 10 µM was 12.4%.

For the compound `COc1ccc(-c2cc(=O)c3c(O)cc(O[C@@H]4O[C@H](CO)[C@@H](O)[C@H](O)[C@H]4O[C@@H]4O[C@@H](C)[C@H](O)[C@@H](O)[C@H]4O)cc3o2)cc1O` [PCM-0216549], under setting [1], the inhibition at 10 µM is 1.5%.

For the compound `O=C(/C=C/C=C/c1ccccc1)CCc1ccccc1` [PCM-0216550], under setting [1], the inhibition at 10 µM came to 4.6%.

For the compound `C[Si](C)(C)CCOCn1ccc2c(-c3cn[nH]c3)ncnc21` [PCM-0216552], the inhibition at 10 µM under setting [1] was -40.9%.

As for `COC(=O)CCC(=O)CN` [PCM-0216554], under setting [1], the inhibition at 10 µM was -7.7%.

In the case of `Cc1nccn1CCC(C(N)=O)(c1ccccc1)c1ccccc1` [PCM-0216555], the inhibition at 10 µM under setting [1] was 1.5%.

As for `O=C(O)c1cc(O)cc(Cl)c1` [PCM-0216556], the inhibition at 10 µM under setting [1] is -10%.

For the compound `CC1=NCC[C@@H](C(=O)O)N1` [PCM-0216558], the inhibition at 10 µM under setting [1] was -13.6%.

With `Cn1nnc(-c2ccc(-c3ccc(N4C[C@H](CO)OC4=O)cc3F)cn2)n1` [PCM-0216559], the inhibition at 10 µM under setting [1] is -12.4%.

`O=C(O)CCCCCCCCCO` [PCM-0216560]: for the setting “read-out: BTK inhibition (%)”, the inhibition at 10 µM is 14.7%.

For the compound `CC(C)CCC[C@@H](C)[C@H]1CC[C@H]2C3=CC=C4C[C@@H](O)CC[C@]4(C)[C@H]3CC[C@]12C` [PCM-0216561], under setting [1], the inhibition at 10 µM is 18.5%.

As to `O=c1ccoc2cc(O)ccc12` [PCM-0216563], the inhibition at 10 µM under setting [1] is -2.8%.

`Cc1ccc(O)c(O)c1` [PCM-0216565]: the inhibition at 10 µM under setting [1] amounted to 6.2%.

Take `C[C@H]1CN(C[C@H](Cc2ccccc2)C(=O)NCC(=O)O)CC[C@@]1(C)c1cccc(O)c1` [PCM-0216566]: under setting [1], the inhibition at 10 µM was -13.1%.

With `COc1cc2c(cc1OC)[C@H]1C[C@@H](OC(=O)[C@@H](N)C(C)C)[C@H](CC(C)C)CN1CC2` [PCM-0216567], the inhibition at 10 µM under setting [1] is -27%.

As for `CO[C@H]1/C=C/O[C@@]2(C)Oc3c(C)c(O)c4c(O)c(cc(O)c4c3C2=O)NC(=O)/C(C)=C\C=C\[C@H](C)[C@H](O)[C@@H](C)[C@@H](O)[C@@H](C)[C@H](OC(C)=O)[C@@H]1C` [PCM-0216568], the inhibition at 10 µM under setting [1] stood at 22.4%.

`CCOC(=O)C1=C(C)NC(C)=C(C(=O)OCC)C1` [PCM-0216569]: the inhibition at 10 µM under setting [1] came out at 10.8%.

On to `CC1(C)CC[C@]2(C)CC[C@]3(C)C(=CC[C@@H]4[C@@]5(C)CC[C@@H](O)[C@](C)(C(=O)O)[C@@H]5CC[C@]43C)[C@@H]2C1` [PCM-0216570], for which, under setting [1], the inhibition at 10 µM was -6.9%.

Take `CCOC(=O)/C=C/c1ccc(O)c(O)c1` [PCM-0216571]: the inhibition at 10 µM under setting [1] is 17.8%.

On to `C[C@@H]1CC[C@]2(C(=O)O[C@@H]3O[C@H](CO)[C@@H](O)[C@H](O)[C@H]3O)CC[C@]3(C)C(=CC[C@@H]4[C@@]5(C)CC[C@H](O)[C@@](C)(CO)[C@@H]5CC[C@]43C)[C@@H]2[C@]1(C)O` [PCM-0216572], for which the inhibition at 10 µM under setting [1] is -2.3%.

In the case of `Cc1ccc2c(c1)[C@]13CCCC[C@@H]1[C@H](C2)N(C)CC3` [PCM-0216574], where the note is “read-out: BTK inhibition (%)”, the inhibition at 10 µM was 12.8%.

As to `CC(C)=CCC/C(C)=C/CC/C(C)=C/CCC(=O)OC/C=C(\C)CCC=C(C)C` [PCM-0216575], under setting [1], the inhibition at 10 µM worked out at 7.7%.

With `C[C@H](O)[C@H](O)c1cnc2nc(N)[nH]c(=O)c2n1` [PCM-0216576], under setting [1], the inhibition at 10 µM stood at 6.8%.

As for `CCCCC[C@](C)(O)/C=C/[C@@H]1[C@@H](C/C=C\CCCC(=O)O)[C@@H](O)C[C@H]1O` [PCM-0216577], under setting [1], the inhibition at 10 µM is -3.9%.

In the case of `CCCCc1ccc(O)cc1O` [PCM-0216578], under setting [1], the inhibition at 10 µM was -8.5%.

Consider `CC(C)=CCOc1ccc(/C=C/C(=O)c2ccc(OCC=C(C)C)cc2OCC(=O)O)cc1` [PCM-0216579], for which the inhibition at 10 µM under setting [1] was determined as 16.2%.

Regarding `OCC1(O)OC[C@@H](O)[C@H](O)[C@@H]1O` (some centres unmarked) [PCM-0216581], the inhibition at 10 µM under setting [1] was 6.9%.

As for `COc1ccc(/C=C/C(=O)c2c(O)cc(OC)cc2OC)cc1` [PCM-0216582], the inhibition at 10 µM under setting [1] stood at 11.6%.

Take `CN(C)c1ccc2nc3c(C(=O)O)cc(=O)c(O)c-3oc2c1` [PCM-0216583]: the inhibition at 10 µM under setting [1] was 88%.

On to `Nc1[nH]c(=O)ncc1Br` [PCM-0216584], for which the inhibition at 10 µM under setting [1] is 8.5%.

For `Nc1ccc(Oc2ccc(-c3ccc(Oc4ccc(N)cc4)cc3)cc2)cc1` [PCM-0216586], the inhibition at 10 µM under setting [1] was -7.7%.

With `NC(=O)Cc1c[nH]c2ccccc12` [PCM-0216587], the inhibition at 10 µM under setting [1] was 3.1%.

Regarding `CC(=O)OC(CC(=O)O)C[N+](C)(C)C` (centres unmarked) [PCM-0216588], the inhibition at 10 µM under setting [1] is -18.5%.

Regarding `CCCCCCCCCCCCCC(=O)O` [PCM-0216589], under setting [1], the inhibition at 10 µM is 1.7%.

Take `CC(OC(=O)OC1CCCCC1)OC(=O)C1=C(CSc2nnnn2CCN(C)C)CS[C@@H]2[C@H](NC(=O)Cc3csc(N)n3)C(=O)N12` (some centres unmarked) [PCM-0216590]: the inhibition at 10 µM under setting [1] amounted to 4.6%.

For the compound `CO/N=C(\C(=O)N[C@@H]1C(=O)N2C(C(=O)[O-])=C(C[n+]3ccn4ncccc43)CS[C@H]12)c1nsc(N)n1` [PCM-0216591], under setting [1], the inhibition at 10 µM worked out at 10.8%.

For `CCN(CC)c1ccc2c(-c3ccccc3C(=O)O)c3ccc(=[N+](CC)CC)cc-3oc2c1` [PCM-0216592], the inhibition at 10 µM under setting [1] stood at 85.7%.

As to `CC[C@@H]1CN2CC[C@@]3(C(=O)Nc4ccccc43)[C@@H]2C[C@@H]1/C(=C\OC)C(=O)OC` [PCM-0216594], the inhibition at 10 µM under setting [1] is -15.4%.

Take `CCC(C)C(=O)O[C@@H]1[C@@H](OC(C)=O)[C@]2(C)[C@H](C(C)=O)CC[C@@]23O[C@]32CC[C@H]3C[C@@H](O[C@H]4C[C@@H](OC)[C@H](O[C@@H]5O[C@H](C)[C@@H](O)[C@@H](OC)[C@H]5O)[C@@H](C)O4)CC[C@]3(C)[C@@H]12` (some centres unmarked) [PCM-0216595]: the inhibition at 10 µM under setting [1] was -11.6%.

The values are drawn from article PMC8041284, “Tunable Methacrylamides for Covalent Ligand Directed Release Chemistry” (Journal of the American Chemical Society, 2021).
